The values below come from ChEMBL document CHEMBL1143658, “Discovery of 2-[(2,4-dichlorophenyl)amino]-N-[(tetrahydro- 2H-pyran-4-yl)methyl]-4-(trifluoromethyl)- 5-pyrimidinecarboxamide, a selective CB2 receptor agonist for the treatment of inflammatory pain” (J Med Chem, 2007).

The EC50 is the concentration that produces a half-maximal response. By IC50 is commonly meant the concentration needed to halve the response being measured. Usually bioavailability stands for the share of a dose that reaches the circulation, judged against a reference dose that is usually intravenous. Lower therefore signals poor availability. One may read the half-life as the time in which the quantity being followed falls by half. A low value points to fast loss. Usually ED50 stands for the dose at which the effect has come halfway, by size or by number of responders.

For data set [1], the target named is T1, Cannabinoid receptor 2 (Homo sapiens, UniProt P34972). Description: Agonist activity at human recombinant CB2 receptor expressed in Saccharomyces cerevisiae cells. The data set is classed as functional, cell-based.
T1 sequence (P34972 whole entry): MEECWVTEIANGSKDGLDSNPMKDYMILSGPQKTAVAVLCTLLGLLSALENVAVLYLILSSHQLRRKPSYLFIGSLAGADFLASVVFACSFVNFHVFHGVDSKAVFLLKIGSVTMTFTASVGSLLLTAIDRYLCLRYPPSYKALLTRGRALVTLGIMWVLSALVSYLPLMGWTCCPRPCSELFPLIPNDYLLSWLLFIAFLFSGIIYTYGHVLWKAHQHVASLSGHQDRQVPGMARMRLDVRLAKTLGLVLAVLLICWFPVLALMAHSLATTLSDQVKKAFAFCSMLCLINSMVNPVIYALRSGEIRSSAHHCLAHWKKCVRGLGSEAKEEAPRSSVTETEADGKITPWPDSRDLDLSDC
For data set [2], the target named is T1, Cannabinoid receptor 2. Description: Efficacy at human recombinant CB2 receptor expressed in Saccharomyces cerevisiae cells relative to HU210. The data set is classed as cell-based.
The target of data set [3] is T2, Cytochrome P450 1A2 (Homo sapiens, UniProt P05177).
T2 sequence (P05177 whole entry): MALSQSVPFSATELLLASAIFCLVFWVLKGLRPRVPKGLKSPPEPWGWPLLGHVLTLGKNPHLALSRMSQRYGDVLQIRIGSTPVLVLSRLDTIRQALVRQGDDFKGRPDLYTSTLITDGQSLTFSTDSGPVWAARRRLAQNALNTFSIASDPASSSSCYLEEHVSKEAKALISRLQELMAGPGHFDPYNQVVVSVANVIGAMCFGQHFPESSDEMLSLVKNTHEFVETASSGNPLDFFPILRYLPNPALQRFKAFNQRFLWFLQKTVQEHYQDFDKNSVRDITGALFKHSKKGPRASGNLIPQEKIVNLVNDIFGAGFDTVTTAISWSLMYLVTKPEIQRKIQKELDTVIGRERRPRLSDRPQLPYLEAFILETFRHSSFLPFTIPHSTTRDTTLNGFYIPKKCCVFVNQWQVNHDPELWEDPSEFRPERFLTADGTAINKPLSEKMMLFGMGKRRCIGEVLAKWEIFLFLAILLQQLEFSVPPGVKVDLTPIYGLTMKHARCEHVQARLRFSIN
Description: Inhibition of human CYP1A2. The data set is classed as ADME.

In data set [4] the target is Cytochrome P450 2C9 (Homo sapiens, UniProt P11712). Description: Inhibition of human CYP2C9. The data set is classed as ADME.
Cytochrome P450 2C9, sequence (P11712 whole entry): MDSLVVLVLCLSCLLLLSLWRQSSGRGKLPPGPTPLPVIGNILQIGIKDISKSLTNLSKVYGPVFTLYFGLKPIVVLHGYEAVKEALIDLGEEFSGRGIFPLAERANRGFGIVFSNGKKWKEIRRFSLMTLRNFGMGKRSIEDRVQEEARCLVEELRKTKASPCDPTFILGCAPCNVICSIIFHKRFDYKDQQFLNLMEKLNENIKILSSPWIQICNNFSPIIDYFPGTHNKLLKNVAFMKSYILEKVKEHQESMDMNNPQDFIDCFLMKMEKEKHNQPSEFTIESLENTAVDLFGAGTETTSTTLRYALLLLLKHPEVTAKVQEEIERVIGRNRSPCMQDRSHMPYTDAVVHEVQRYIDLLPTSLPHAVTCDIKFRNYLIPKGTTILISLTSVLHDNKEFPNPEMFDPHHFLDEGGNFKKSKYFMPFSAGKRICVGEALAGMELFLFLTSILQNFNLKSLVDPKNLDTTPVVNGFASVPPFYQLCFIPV
Data set [5] concerns the target Cytochrome P450 2C19 (Homo sapiens, UniProt P33261). Description: Inhibition of human CYP2C19. It counts as ADME.
The target in data set [6] is Cytochrome P450 2D6 (Homo sapiens, UniProt P10635). Description: Inhibition of human CYP2D6. It counts as ADME.
Cytochrome P450 2D6, sequence (P10635 whole entry): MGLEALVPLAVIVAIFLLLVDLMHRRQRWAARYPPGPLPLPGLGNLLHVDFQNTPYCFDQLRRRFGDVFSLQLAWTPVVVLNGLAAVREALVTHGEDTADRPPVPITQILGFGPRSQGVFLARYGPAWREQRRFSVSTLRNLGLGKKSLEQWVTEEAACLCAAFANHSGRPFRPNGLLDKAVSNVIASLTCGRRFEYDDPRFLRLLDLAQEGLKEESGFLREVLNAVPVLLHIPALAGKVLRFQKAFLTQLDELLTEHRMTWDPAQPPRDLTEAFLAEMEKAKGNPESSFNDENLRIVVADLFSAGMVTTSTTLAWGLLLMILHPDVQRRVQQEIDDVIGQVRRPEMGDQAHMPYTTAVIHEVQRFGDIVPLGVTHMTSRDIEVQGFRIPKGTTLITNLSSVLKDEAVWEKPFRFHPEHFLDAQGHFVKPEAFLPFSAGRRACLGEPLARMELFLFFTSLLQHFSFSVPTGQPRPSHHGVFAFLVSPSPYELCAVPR
Data set [7] deals with Cytochrome P450 3A4 (Homo sapiens, UniProt P08684). Description: Inhibition of human CYP3A4.
Cytochrome P450 3A4, sequence (P08684 whole entry): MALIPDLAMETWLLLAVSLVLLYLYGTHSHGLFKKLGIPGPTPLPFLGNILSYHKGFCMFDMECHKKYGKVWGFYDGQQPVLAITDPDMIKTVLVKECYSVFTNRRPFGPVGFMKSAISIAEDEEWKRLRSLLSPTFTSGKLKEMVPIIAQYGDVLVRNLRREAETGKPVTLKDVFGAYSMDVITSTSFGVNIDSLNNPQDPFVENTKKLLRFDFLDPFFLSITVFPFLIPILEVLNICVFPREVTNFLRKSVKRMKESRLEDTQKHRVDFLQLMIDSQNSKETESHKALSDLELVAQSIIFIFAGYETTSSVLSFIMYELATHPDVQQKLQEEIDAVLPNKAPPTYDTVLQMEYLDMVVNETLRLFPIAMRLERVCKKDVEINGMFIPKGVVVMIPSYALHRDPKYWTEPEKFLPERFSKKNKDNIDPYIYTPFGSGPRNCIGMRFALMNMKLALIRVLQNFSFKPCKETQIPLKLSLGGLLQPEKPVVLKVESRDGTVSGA
Data set [8] has as its target T3, Cannabinoid receptor 2 (Rattus norvegicus) (UniProt Q9QZN9).
T3 sequence (whole entry): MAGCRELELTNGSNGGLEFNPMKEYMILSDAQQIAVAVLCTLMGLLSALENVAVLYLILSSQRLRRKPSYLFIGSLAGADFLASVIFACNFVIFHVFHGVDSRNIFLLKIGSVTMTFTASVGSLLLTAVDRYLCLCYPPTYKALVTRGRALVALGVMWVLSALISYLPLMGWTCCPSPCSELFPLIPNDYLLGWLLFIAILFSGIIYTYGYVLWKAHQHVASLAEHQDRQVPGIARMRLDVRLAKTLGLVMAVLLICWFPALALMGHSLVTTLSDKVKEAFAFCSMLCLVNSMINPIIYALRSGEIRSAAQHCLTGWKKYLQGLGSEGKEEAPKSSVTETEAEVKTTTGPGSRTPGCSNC
Description: (§1) Agonist activity at rat CB2 receptor. It counts as functional.

Data set [9] has as its target T4, Cannabinoid receptor 2 (Rattus norvegicus, UniProt Q9QZN9).
T4 sequence (Q9QZN9 whole entry): T3 sequence (whole entry)
The description is as §1. The data set is classed as functional.

Data set [10] is described as follows: Oral bioavailability in rat. The data set is classed as ADME, organism-based. The note with it: in vivo.
Data set [11] can be described thus: Half life in rat. It counts as ADME, organism-based. The note with it: in vivo.
The subject of data set [12] is Rattus norvegicus. Description: Analgesic activity in po dosed rat FCA model of inflammatory pain. It counts as functional.
The subject of data set [13] is Rattus norvegicus. Description: Reversal of hyperalgesia in rat at 0.3 mg/kg, po by weight bearing protocol. The data set is classed as functional, organism-based. Further details: dose 0.3 mg/kg.
Data set [14] in a line: Drug concentration in blood of rat FCA model of inflammatory pain at 0.03 mg/kg, po after 1hr. Further details: dose 0.03 mg/kg, route oral. As to conditions: read-out: Activity. It counts as ADME, organism-based.
Data set [15] is described as follows: Drug concentration in blood of rat FCA model of inflammatory pain at 0.1 mg/kg, po after 1hr. The data set is classed as ADME, organism-based. Further details: dose 0.1 mg/kg, route oral. As to conditions: read-out: Activity.
A short description of data set [16]: Drug concentration in blood of rat FCA model of inflammatory pain at 0.3 mg/kg, po after 1hr. The data set is classed as ADME, organism-based. Further details: dose 0.3 mg/kg, route oral. As to conditions: read-out: Activity.
Data set [17] has as its system Rattus norvegicus. Description: Reversal of FCA-induced hyperalgesia in rat administered thrice daily at 1 mg/kg, po. It counts as functional, organism-based. Details: dose 1 mg/kg.
The subject of data set [18] is Rattus norvegicus. Description: Reversal of antihypersensitivity to pain in rat FCA model of inflammatory pain at 15 mg/kg, ip after 1 hr. It counts as functional, organism-based. Further details: dose 15 mg/kg.

Calls of active or inactive are those of the source. No cut-off for these calls is given here. Some results are limits rather than exact numbers.

Cytochrome P450 2C19, sequence (P33261 whole entry): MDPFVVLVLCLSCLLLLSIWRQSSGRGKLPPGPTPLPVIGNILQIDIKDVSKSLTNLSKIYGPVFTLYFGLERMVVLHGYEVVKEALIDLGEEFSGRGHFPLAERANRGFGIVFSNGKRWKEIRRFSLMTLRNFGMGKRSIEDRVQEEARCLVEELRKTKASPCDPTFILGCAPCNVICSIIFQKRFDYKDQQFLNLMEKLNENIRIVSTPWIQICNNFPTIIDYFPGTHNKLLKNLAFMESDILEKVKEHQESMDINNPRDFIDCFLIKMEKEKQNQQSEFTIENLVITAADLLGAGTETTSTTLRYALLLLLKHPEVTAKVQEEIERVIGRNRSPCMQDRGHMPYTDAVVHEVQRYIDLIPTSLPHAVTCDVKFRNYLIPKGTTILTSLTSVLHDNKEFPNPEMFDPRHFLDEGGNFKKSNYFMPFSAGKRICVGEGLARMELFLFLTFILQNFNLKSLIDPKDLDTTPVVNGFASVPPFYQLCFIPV

For the molecule `O=C(NCC1CCOCC1)c1cnc(Nc2ccc(Cl)cc2Cl)nc1C(F)(F)F` [GW842166X], the half-maximal effective concentration (EC50) is 0.063 µM in data set [1] and 0.091 µM in data set [9]. In addition, the Efficacy in data set [2] turned out to be 95%; in [8], 100%. Moreover, the IC50 in data set [3], in data set [4], in data set [5], in data set [6] and in data set [7] was over 100 µM in each case. Besides, in [10], the bioavailability came out at 58%. In addition, the half-life in data set [11] is 3 h. Further, the 50% effect level in data set [12] (ED50) was put at a dose of 0.1 mg/kg. The result in data set [13] and in [17] was Active. For the same molecule, the concentration at 1 h in data set [14] turned out to be 30 nM; in data set [15], 130 nM; in [16], 370 nM.
For `COc1ccc(C(=O)c2c(C)n(CCN3CCOCC3)c3cc(I)ccc23)cc1`, the outcome in [18] was Active.
